Assay: Lipophilicity, log D of compound at pH 7.4
Settings: buffer

In the case of `CO[C@H]1/C(F)=C/C[C@H](C)[C@@H](C)S(=O)(=O)NC(=O)c2ccc3c(c2)N(C[C@@H]2CCO[C@H]21)C[C@@]1(CCCc2cc(Cl)ccc21)CO3`, the logD is reported as 3.
